Results: patent US12037345B2, “Heterobicyclic compounds for inhibiting the activity of SHP2” (TAIHO PHARMACEUTICAL CO., LTD., priority 2018, dated 2024)

Key:
[1] = test system: pERK (phospho-p44/42 ERK) in HCC827 cells; assay: Cellular pERK Inhibition Assay, Method A (In-Cell Western); type: cell-based; conditions: Homo sapiens, Table 19, head prints unit as "-M", read-out: pERK (IC50) Method A
How it was run: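 In-Cell Western: phospho-p44/42 ERK antibody staining of formalin-fixed HCC827 cells after compound exposure (serum-free medium, 0.2% DMSO, 37 °C, indicated time). Readings minus cell-free blanks were normalised to DMSO-treated wells. Relative IC50 came from four-parameter logistic fits of quadruplicates, given as single or mean values.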

SHP2 = SHP2 (Homo sapiens (Human), UniProt Q06124); assay: SHP2 Biochemical Assay (DiFMUP conversion, pIRS1-activated); conditions: Table 19; head prints unit as "-M"
How it was run: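 Rates of DiFMU formation were followed 30 min at ex 360/em 450 nm, with 50 μM DiFMUP, 10 pM SHP2 and pIRS1 peptide ([…]) after 30 min compound pre-incubation at pH 7.0 Bis-Tris propane. Four-parameter logistic IC50s in singlicate; repeat runs averaged.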

Chain of SHP2 (Q06124 whole entry): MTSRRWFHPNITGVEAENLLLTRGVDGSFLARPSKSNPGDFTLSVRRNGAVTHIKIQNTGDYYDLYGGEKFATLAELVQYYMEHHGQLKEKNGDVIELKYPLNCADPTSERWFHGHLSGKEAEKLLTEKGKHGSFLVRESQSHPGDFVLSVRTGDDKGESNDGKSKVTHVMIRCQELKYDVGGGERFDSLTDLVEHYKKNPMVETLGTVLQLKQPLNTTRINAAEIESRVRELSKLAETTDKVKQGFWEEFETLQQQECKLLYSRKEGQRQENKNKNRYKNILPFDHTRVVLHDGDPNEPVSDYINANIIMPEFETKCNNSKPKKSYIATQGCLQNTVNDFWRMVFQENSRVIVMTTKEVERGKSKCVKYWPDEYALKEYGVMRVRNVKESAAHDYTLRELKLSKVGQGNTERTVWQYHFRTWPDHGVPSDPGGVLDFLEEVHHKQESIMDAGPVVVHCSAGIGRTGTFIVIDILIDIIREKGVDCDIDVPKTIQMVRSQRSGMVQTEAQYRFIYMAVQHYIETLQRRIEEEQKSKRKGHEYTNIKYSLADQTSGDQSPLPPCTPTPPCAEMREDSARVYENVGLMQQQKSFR

Structure (SMILES) | IC50 [1] | IC50 (SHP2)
Cn1nc2ccc(-c3c[nH]c4nc(N5CC6COCC(C5)N6)n(C)c(=O)c34)c(Cl)c2c1Cl [Example 80, 2-(3-oxa-7,9-diazabicyclo[3.3.1]nonan-7-yl)-5-(3,4-dichloro-2-methyl-2H-indazol-5-yl)-3-methyl-3,7-dihydro-4H-pyrrolo[2,3-d]pyrimidin-4-one] | 270 nM | 11 nM
Cc1nc2ccc(-c3c[nH]c4nc(N5CC6COCC(C5)N6)n(C)c(=O)c34)c(Cl)c2s1 [Example 81, 2-(3-oxa-7,9-diazabicyclo[3.3.1]nonan-7-yl)-5-(7-chloro-2-methylbenzo[d]thiazol-6-yl)-3-methyl-3,7-dihydro-4H-pyrrolo[2,3-d]pyrimidin-4-one] | 780 nM | 14 nM
CN(C)C(=O)Cn1nc2ccc(-c3c[nH]c4nc(N5C6CCCC5CNC6)n(C)c(=O)c34)c(Cl)c2c1Cl [Example 82, 2-(5-(2-(3,9-diazabicyclo[3.3.1]nonan-9-yl)-3-methyl-4-oxo-4,7-dihydro-3H-pyrrolo[2,3-d]pyrimidin-5-yl)-3,4-dichloro-2H-indazol-2-yl)-N,N-dimethylacetamide] | 910 nM | 14 nM
CN(C)C(=O)CCn1nc2ccc(-c3c[nH]c4nc(N5C6CCCC5CNC6)n(C)c(=O)c34)c(Cl)c2c1Cl [Example 83, 3-(5-(2-(3,9-diazabicyclo[3.3.1]nonan-9-yl)-3-methyl-4-oxo-4,7-dihydro-3H-pyrrolo[2,3-d]pyrimidin-5-yl)-3,4-dichloro-2H-indazol-2-yl)-N,N-dimethylpropanamide] | 190 nM | 11 nM
CN(C)C(=O)Cc1nc2ccc(-c3c[nH]c4nc(N5C6CCCC5CNC6)n(C)c(=O)c34)c(Cl)c2s1 [Example 84, 2-(6-(2-(3,9-diazabicyclo[3.3.1]nonan-9-yl)-3-methyl-4-oxo-4,7-dihydro-3H-pyrrolo[2,3-d]pyrimidin-5-yl)-7-chlorobenzo[d]thiazol-2-yl)-N,N-dimethylacetamide] | 550 nM | 18 nM
Cn1cc2c(Cl)c(-c3c[nH]c4nc(N5C6CNCC5COC6)n(C)c(=O)c34)ccc2n1 [Example 85, 2-(3-oxa-7,9-diazabicyclo[3.3.1]nonan-9-yl)-5-(4-chloro-2-methyl-2H-indazol-5-yl)-3-methyl-3,7-dihydro-4H-pyrrolo[2,3-d]pyrimidin-4-one] | 640 nM | 13 nM
CN(C)C(=O)Cn1cc2c(Cl)c(-c3c[nH]c4nc(N5C6CCC5CNC6)n(C)c(=O)c34)ccc2n1 [Example 86, 2-(5-(2-(3,8-diazabicyclo[3.2.1]octan-8-yl)-3-methyl-4-oxo-4,7-dihydro-3H-pyrrolo[2,3-d]pyrimidin-5-yl)-4-chloro-2H-indazol-2-yl)-N,N-dimethylacetamide] | 5200 nM | 59 nM
Cn1nc2ccc(-c3c[nH]c4nc(N5C6CCC5CNC6)n(C)c(=O)c34)c(Cl)c2n1 [Example 87, 2-(3,8-diazabicyclo[3.2.1]octan-8-yl)-5-(4-chloro-2-methyl-2H-benzo[d][1,2,3]triazol-5-yl)-3-methyl-3,7-dihydro-4H-pyrrolo[2,3-d]pyrimidin-4-one] | 580 nM | 68 nM
CN(C)C(=O)CCn1cc2c(Cl)c(-c3c[nH]c4nc(N5C6CCC5CNC6)n(C)c(=O)c34)ccc2n1 [Example 88, 3-(5-(2-(3,8-diazabicyclo[3.2.1]octan-8-yl)-3-methyl-4-oxo-4,7-dihydro-3H-pyrrolo[2,3-d]pyrimidin-5-yl)-4-chloro-2H-indazol-2-yl)-N,N-dimethylpropanamide] | 4500 nM | 52 nM
CN(C)C(=O)CCn1nc2ccc(-c3c[nH]c4nc(N5C6CCC5CNC6)n(C)c(=O)c34)c(Cl)c2c1Cl [Example 89, 3-(5-(2-(3,8-diazabicyclo[3.2.1]octan-8-yl)-3-methyl-4-oxo-4,7-dihydro-3H-pyrrolo[2,3-d]pyrimidin-5-yl)-3,4-dichloro-2H-indazol-2-yl)-N,N-dimethylpropanamide] | 540 nM | 14 nM
Cc1nc2ccc(-c3c[nH]c4nc(N5C6CCC5CNC6)n(C)c(=O)c34)c(Cl)c2s1 [Example 90, 2-(3,8-diazabicyclo[3.2.1]octan-8-yl)-5-(7-chloro-2-methylbenzo[d]thiazol-6-yl)-3-methyl-3,7-dihydro-4H-pyrrolo[2,3-d]pyrimidin-4-one] | 740 nM | 12 nM
CCn1cc2c(Cl)c(-c3c[nH]c4nc(N5C6CCC5CNC6)n(C)c(=O)c34)ccc2n1 [Example 91, 2-(3,8-diazabicyclo[3.2.1]octan-8-yl)-5-(4-chloro-2-ethyl-2H-indazol-5-yl)-3-methyl-3,7-dihydro-4H-pyrrolo[2,3-d]pyrimidin-4-one] | 340 nM | 12 nM
Cc1c2c(Cl)c(-c3c[nH]c4nc(N5[C@H]6CC[C@@H]5[C@H](N)C6)n(C)c(=O)c34)ccc2nn1C [Example 94, 2-((1R,2R,4S)-2-amino-7-azabicyclo[2.2.1]heptan-7-yl)-5-(4-chloro-2,3-dimethyl-2H-indazol-5-yl)-3-methyl-3,7-dihydro-4H-pyrrolo[2,3-d]pyrimidin-4-one] | 72 nM | 5 nM
Cc1nc2ccc(-c3c[nH]c4nc(N5[C@H]6CC[C@@H]5[C@H](N)C6)n(C)c(=O)c34)c(Cl)c2s1 [Example 95, 2-((1R,2R,4S)-2-amino-7-azabicyclo[2.2.1]heptan-7-yl)-5-(7-chloro-2-methylbenzo[d]thiazol-6-yl)-3-methyl-3,7-dihydro-4H-pyrrolo[2,3-d]pyrimidin-4-one] | 68 nM | 2.5 nM
CN[C@@H]1C[C@@H]2CC[C@H]1N2c1nc2[nH]cc(-c3ccc4nn(C)cc4c3Cl)c2c(=O)n1C [Example 97, 5-(4-chloro-2-methyl-2H-indazol-5-yl)-3-methyl-2-((1R,2R,4S)-2-(methylamino)-7-azabicyclo[2.2.1]heptan-7-yl)-3,7-dihydro-4H-pyrrolo[2,3-d]pyrimidin-4-one] | 82 nM | 7.7 nM
CCn1cc2c(Cl)c(-c3c[nH]c4nc(N5[C@H]6CC[C@@H]5[C@H](NC)C6)n(C)c(=O)c34)ccc2n1 [Example 98, 5-(4-chloro-2-ethyl-2H-indazol-5-yl)-3-methyl-2-((1R,2R,4S)-2-(methylamino)-7-azabicyclo[2.2.1]heptan-7-yl)-3,7-dihydro-4H-pyrrolo[2,3-d]pyrimidin-4-one] | 190 nM | 10 nM
Cn1nc2ccc(-c3c[nH]c4nc(N5C6CCCC5CNC6)n(C)c(=O)c34)c(Cl)c2c1Cl [Example 99, 2-(3,9-diazabicyclo[3.3.1]nonan-9-yl)-5-(3,4-dichloro-2-methyl-2H-indazol-5-yl)-3-methyl-3,7-dihydro-4H-pyrrolo[2,3-d]pyrimidin-4-one] | 57 nM | 4.5 nM
Cn1nc2ccc(-c3c[nH]c4nc(N5C6CCCC5CNC6)n(C)c(=O)c34)c(F)c2c1Cl [Example 100, 2-(3,9-diazabicyclo[3.3.1]nonan-9-yl)-5-(3-chloro-4-fluoro-2-methyl-2H-indazol-5-yl)-3-methyl-3,7-dihydro-4H-pyrrolo[2,3-d]pyrimidin-4-one] | 95 nM | 6 nM
CCn1nc2ccc(-c3c[nH]c4nc(N5[C@H]6CC[C@@H]5[C@H](N)C6)n(C)c(=O)c34)c(Cl)c2c1OC [Example 102, 2-((1R,2R,4S)-2-amino-7-azabicyclo[2.2.1]heptan-7-yl)-5-(4-chloro-2-ethyl-3-methoxy-2H-indazol-5-yl)-3-methyl-3,7-dihydro-4H-pyrrolo[2,3-d]pyrimidin-4-one] | 88 nM | 9 nM
Cn1c(N2[C@H]3CC[C@@H]2[C@H](N)C3)nc2[nH]cc(-c3ccc4nn(CF)c(Cl)c4c3Cl)c2c1=O [Example 103, 2-((1R,2R,4S)-2-amino-7-azabicyclo[2.2.1]heptan-7-yl)-5-(3,4-dichloro-2-(fluoromethyl)-2H-indazol-5-yl)-3-methyl-3,7-dihydro-4H-pyrrolo[2,3-d]pyrimidin-4-one] | 26 nM | 2 nM
CN[C@@H]1C[C@@H]2CC[C@H]1N2c1nc2[nH]cc(-c3ccc4nn(C)c(Cl)c4c3Cl)c2c(=O)n1C [Example 104, 5-(3,4-dichloro-2-methyl-2H-indazol-5-yl)-3-methyl-2-((1R,2R,4S)-2-(methylamino)-7-azabicyclo[2.2.1]heptan-7-yl)-3,7-dihydro-4H-pyrrolo[2,3-d]pyrimidin-4-one] | 84 nM | 2.7 nM
CN[C@@H]1C[C@@H]2CC[C@H]1N2c1nc2[nH]cc(-c3ccc4ncsc4c3Cl)c2c(=O)n1C [Example 105, 5-(7-chlorobenzo[d]thiazol-6-yl)-3-methyl-2-((1R,2R,4S)-2-(methylamino)-7-azabicyclo[2.2.1]heptan-7-yl)-3,7-dihydro-4H-pyrrolo[2,3-d]pyrimidin-4-one] | 160 nM | 5 nM
CN[C@@H]1C[C@@H]2CC[C@H]1N2c1nc2[nH]cc(-c3ccc4nn(C)c(Cl)c4c3F)c2c(=O)n1C [Example 106, 5-(3-chloro-4-fluoro-2-methyl-2H-indazol-5-yl)-3-methyl-2-((1R,2R,4S)-2-(methylamino)-7-azabicyclo[2.2.1]heptan-7-yl)-3,7-dihydro-4H-pyrrolo[2,3-d]pyrimidin-4-one] | 100 nM | 5 nM
CN[C@@H]1C[C@@H]2CC[C@H]1N2c1nc2[nH]cc(-c3ccc4nc(C)sc4c3Cl)c2c(=O)n1C [Example 107, 5-(7-chloro-2-methylbenzo[d]thiazol-6-yl)-3-methyl-2-((1R,2R,4S)-2-(methylamino)-7-azabicyclo[2.2.1]heptan-7-yl)-3,7-dihydro-4H-pyrrolo[2,3-d]pyrimidin-4-one] | 270 nM | 7 nM
